Where two headings read alike, the source gives them in different places.
Assays:
[1] = Aqueous solubility determination, saturated solution shaken in water, LC; assay type: physicochemical; settings: slurried 24 hours, filtered
Procedure: The aqueous solubility of the successfully reproduced salts is determined by shaking a saturated solution in water. The solubility at pH 7.4 is determined by shaking a saturated solution in a phosphate buffered system. The samples are prepared by the addition of a known amount of water (100-200 μl) and subsequent slurrying with the solid for 24 hours. All samples are then filtered using syringe filters to remove undissolved solids, and then the filtrates are diluted with methanol/acetonitrile (1:1 v/v). LC analysis of the samples is performed, and a calibration line is used for the determination of the solubilities.

H1 histaminergic = H1 histaminergic (Homo sapiens, UniProt P35367); settings: cited from earlier work
5-HT2C = biological target: T1, 5-HT2C (Homo sapiens, UniProt P28335); settings: cited from earlier work
T1 sequence (P28335 33-458): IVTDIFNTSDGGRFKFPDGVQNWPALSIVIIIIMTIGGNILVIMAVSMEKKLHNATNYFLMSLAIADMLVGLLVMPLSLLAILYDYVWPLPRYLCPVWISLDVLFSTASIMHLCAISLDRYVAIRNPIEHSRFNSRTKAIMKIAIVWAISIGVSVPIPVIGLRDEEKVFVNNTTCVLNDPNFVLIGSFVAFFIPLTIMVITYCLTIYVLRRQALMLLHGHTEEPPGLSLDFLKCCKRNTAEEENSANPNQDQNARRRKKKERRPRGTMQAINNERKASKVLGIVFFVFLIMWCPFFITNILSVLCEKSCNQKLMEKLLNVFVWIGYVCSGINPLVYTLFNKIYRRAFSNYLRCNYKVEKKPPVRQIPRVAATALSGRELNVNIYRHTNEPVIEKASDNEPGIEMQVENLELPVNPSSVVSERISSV

muscarinic = settings: cited from earlier work
[2] = free base form, cited from earlier work

Sequence of H1 histaminergic (P35367 whole entry): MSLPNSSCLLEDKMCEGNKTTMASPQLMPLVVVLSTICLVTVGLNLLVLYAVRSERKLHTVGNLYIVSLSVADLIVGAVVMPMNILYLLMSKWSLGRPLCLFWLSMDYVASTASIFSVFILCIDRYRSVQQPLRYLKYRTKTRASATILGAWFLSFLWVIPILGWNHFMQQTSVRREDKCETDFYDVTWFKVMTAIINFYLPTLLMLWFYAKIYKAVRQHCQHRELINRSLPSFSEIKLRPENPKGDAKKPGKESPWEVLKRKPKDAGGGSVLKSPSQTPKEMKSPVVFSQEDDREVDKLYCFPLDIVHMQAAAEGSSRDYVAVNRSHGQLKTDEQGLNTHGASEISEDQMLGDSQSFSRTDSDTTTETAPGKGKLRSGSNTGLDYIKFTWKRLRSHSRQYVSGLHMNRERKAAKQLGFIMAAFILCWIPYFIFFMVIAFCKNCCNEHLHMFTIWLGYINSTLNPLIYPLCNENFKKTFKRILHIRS

CC(C)(C)c1ccc(S(=O)(=O)O)cc1.CN1CCN2c3c(cccc31)[C@@H]1CN(CCCC(=O)c3ccc(F)cc3)CC[C@@H]12 [4-t-butylbenzenesulfonate salt, lumateperone 4-tert-butylbenzenesulfonate salt]
Aqueous Solubility [1]: 770 µg/mL

CCCCCCCCc1ccc(S(=O)(=O)O)cc1.CN1CCN2c3c(cccc31)[C@@H]1CN(CCCC(=O)c3ccc(F)cc3)CC[C@@H]12 [4-octylbenzenesulfonate salt, lumateperone 4-octylbenzenesulfonate salt]
Aqueous Solubility [1]: 6 µg/mL

CCCCCCCS(=O)(=O)O.CN1CCN2c3c(cccc31)C1CN(CCCC(=O)c3ccc(F)cc3)CCC12 (stereo not shown) [Example 9, lumateperone heptane-1-sulfonic salt]
Aqueous Solubility [1]: 4300 µg/mL

CCCCCS(=O)(=O)O.CN1CCN2c3c(cccc31)C1CN(CCCC(=O)c3ccc(F)cc3)CCC12 (stereo not shown) [Example 8, lumateperone pentane-1-sulfonic salt]
Aqueous Solubility [1]: 18770 µg/mL

CN1CCN2c3c(cccc31)[C@@H]1CN(CCCC(=O)c3ccc(F)cc3)CC[C@@H]12 [Lumateperone, 4-((6bR,10aS)-3-methyl-2,3,6b,9,10,10a-hexahydro-1H-pyrido[3′,4′: 4,5]pyrrolo[1,2,3-de]quinoxalin-8(7H)-yl)-1-(4-fluorophenyl)-1-butanone]
binding to H1 histaminergic receptors (H1 histaminergic): negligible binding
binding to 5-HT2C receptors (5-HT2C): negligible binding
binding to muscarinic receptors (muscarinic): negligible binding
aqueous solubility of free base (in words) ([2]; listed as ITI-007): poor aqueous solubility
aqueous solubility of free base (in words) ([2]; listed as Lumateperone free base): very low water-solubility

CCCc1ccc(S(=O)(=O)O)cc1.CN1CCN2c3c(cccc31)[C@@H]1CN(CCCC(=O)c3ccc(F)cc3)CC[C@@H]12 [Example 4, lumateperone 4-propylbenzenesulfonate salt]
Aqueous Solubility [1]: 1620 µg/mL
